Measured values taken from patent publication US20240269298A1, “PHOSPHONYL DERIVATIVE, AND COMPOSITION AND PHARMACEUTICAL APPLICATION THEREOF” (XIZANG HAISCO PHARMACEUTICAL CO., LTD., priority 2021, published 2024).
Read-outs that look alike come from different tables or passages of the source.

Tests used:
[1] = Pharmacokinetic test in mice; type: in vivo; settings: male, ICR, mouse, po, administration i.g. (10 mg/kg), plasma
In short: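 Male ICR mice (20-25 g), fasted 12-14 h before dosing and fed 4 h after, received a single intravenous or intragastric dose. Orbital plasma sampled from 0 to 24 h (5 min-24 h points); LC-MS/MS quantitation for PK parameters and bioavailability.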

[2] = system: NCI-H1975 EGFR-L858R-T790M-C797S cells; experiment: Inhibitory activity on proliferation of NCI-H1975 EGFR-L858R-T790M-C797S cells (CellTiter-Glo, 72 h); type: cell-based; settings: Homo sapiens
In short: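 Cells (1500/well) exposed to graded compound concentrations for 72 h at 37 °C in hygromycin-free RPMI1640 + 10% FBS, 0.1% DMSO vehicle. Viability by CellTiter-Glo luminescence relative to vehicle; IC50 from nonlinear sigmoidal dose-survival fit.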

[3] = system: NCI-H1975 (EGFR-L858R-T790M) cells; experiment: Inhibitory activity on proliferation of NCI-H1975 (EGFR-L858R-T790M) cells (CTG, 72 h); type: cell-based; settings: Homo sapiens
In short: (§1)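 IC50 values come from S-shaped dose-survival fits of CTG signal expressed as % of vehicle. Compound exposure lasted 72 h at 37 °C with 0.1% DMSO; seeding was 3000 A431 cells/well in DMEM+10% FBS and 1000 NCI-H1975 cells/well in RPMI1640+10% FBS.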

[4] = system: A431 (EGFR-WT) cells; experiment: Inhibitory activity on proliferation of A431 (EGFR-WT) cells (CTG, 72 h); type: cell-based; settings: Homo sapiens, A-431
In short: as §1

[5] = biological target: T1, EGFR protein in NCI-H1975 EGFR-L858R-T790M-C797S cells (Homo sapiens, UniProt P00533, C797S/L858R/T790M); experiment: Degradation activity on EGFR protein in NCI-H1975 EGFR-L858R-T790M-C797S cells, Method II (western blot, 48 h); type: cell-based; settings: 48 h incubation, EGFR protein relative to DMSO control
T1 construct: expressed in transfected cells; host or cells: NCI-H1975 EGFR-L858R-T790M-C797S (kept under hygromycin selection)
Method: Protein sample preparation: NCI-H1975 EGFR-L858R-T790M-C797S cells were cultured in an incubator at 37° C. with 5% CO2, and the culture medium was RPMI1640+10% FBS+100 μg/mL hygromycin. The cells in the logarithmic phase were collected, and the cell suspension was adjusted to an appropriate concentration with a hygromycin-free culture medium, plated on a 6-well plate at a density of 350000 cells/well and a volume of 2 mL, and cultured overnight in an incubator at 37° C. with 5% CO2. The next day, the compounds at different concentrations were added. DMSO control wells were provided, wherein the concentration of DMSO in all wells was 0.1%. The 6-well plate was cultured in an incubator at 37° C. with 5% CO2 for 48 h, and then 30 μL of RIPA lysates (Beyotime, Cat. P0013B) containing protease inhibitors (Beyotime, Cat. P0013B) were added. The mixtures were lysed on ice for 30 min. Centrifugation was carried out at 13000 rpm/min at 4° C. for 20 minutes to collect protein supernatant samples, and protein quantification was performed by the BCA method. Western Blot detection samples were prepared.
Western blot detection: 20 μg of protein samples were added to each well, subjected to polyacrylamide gel electrophoresis and transferred to a membrane, and then diluted anti-EGFR (CST, Cat. 4267S) and […] (Kangchen, Cat. KC-5G4) antibodies were added and incubated overnight at 4° C. After washing the membrane, diluted goat anti-rabbit (Licor, Cat. 926-32211) and goat anti-mouse (Licor, Cat. 926-68070) antibodies were added and incubated in the dark for 45 min. Scanning and detection at wavelengths of 700 nm and 800 nm were performed with a far-infrared imaging system (Odyssey).
According to formula (3), the expression level of EGFR protein in the cells relative to the DMSO control group was calculated after incubation with different concentrations of compounds. wherein EGFRcompound was the fluorescence value of EGFR protein after incubation with compounds, and EGFRvehicle was the fluorescence value of EGFR protein in the DMSO control group. Using the Origin 9.2 software, the drug concentration DC50 values when the expression level of EGFR protein was 50% relative to the DMSO control group were calculated.

[6] = read-out: IC50 (value in brackets)

T1 sequence (P00533 25-1210 T790M/C797S/L858R): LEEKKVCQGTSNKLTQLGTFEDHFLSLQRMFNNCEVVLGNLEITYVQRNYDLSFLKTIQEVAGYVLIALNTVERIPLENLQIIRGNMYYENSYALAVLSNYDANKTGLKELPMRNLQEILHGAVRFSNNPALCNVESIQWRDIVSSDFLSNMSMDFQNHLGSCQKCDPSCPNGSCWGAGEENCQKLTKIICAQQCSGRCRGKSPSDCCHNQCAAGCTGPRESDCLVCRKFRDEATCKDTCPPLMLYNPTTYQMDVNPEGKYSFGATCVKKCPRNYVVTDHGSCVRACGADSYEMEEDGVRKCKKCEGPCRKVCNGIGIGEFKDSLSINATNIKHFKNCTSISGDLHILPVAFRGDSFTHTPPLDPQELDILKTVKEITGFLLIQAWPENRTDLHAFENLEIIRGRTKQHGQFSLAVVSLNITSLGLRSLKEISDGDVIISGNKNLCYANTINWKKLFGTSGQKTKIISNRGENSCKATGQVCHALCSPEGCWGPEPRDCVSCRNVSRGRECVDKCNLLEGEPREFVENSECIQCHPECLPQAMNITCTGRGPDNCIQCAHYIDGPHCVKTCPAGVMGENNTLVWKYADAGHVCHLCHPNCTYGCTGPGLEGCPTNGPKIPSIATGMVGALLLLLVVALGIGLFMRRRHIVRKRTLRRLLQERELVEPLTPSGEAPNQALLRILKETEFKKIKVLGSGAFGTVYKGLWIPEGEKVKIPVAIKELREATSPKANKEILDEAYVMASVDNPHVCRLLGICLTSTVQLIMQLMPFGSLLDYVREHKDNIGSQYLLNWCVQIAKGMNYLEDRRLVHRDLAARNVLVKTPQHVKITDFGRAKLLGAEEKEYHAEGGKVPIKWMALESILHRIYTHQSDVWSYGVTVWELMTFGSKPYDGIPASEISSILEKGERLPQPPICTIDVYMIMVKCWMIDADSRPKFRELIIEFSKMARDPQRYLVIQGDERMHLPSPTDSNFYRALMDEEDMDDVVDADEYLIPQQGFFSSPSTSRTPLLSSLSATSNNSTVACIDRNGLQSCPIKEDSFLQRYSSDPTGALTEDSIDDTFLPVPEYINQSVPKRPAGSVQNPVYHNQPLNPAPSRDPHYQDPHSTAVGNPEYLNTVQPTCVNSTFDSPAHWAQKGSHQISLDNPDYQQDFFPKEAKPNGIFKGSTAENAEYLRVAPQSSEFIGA

AUC [1]	half-life [1]	IC50 ([2]; read-out: IC50 (class symbol))	IC50 ([2]; read-out: IC50 (value))	IC50 ([3]; read-out: IC50 (class symbol))	IC50 [3, 6]	IC50 [4]	DC50 [5]	AUC(0-t) [1]	SMILES
71000 ng·h/mL	4.83 h	< 200 nM	135 nM	< 100 nM	42 nM	≥ 10000 nM	< 100 nM	–	COc1cc(N2CCC(CN3CCN(c4ccc5c(c4)C(=O)N(C4CCC(=O)NC4=O)C5=O)CC3)CC2)c(-c2cnn(C)c2)cc1Nc1ncc(Br)c(Nc2ccccc2P(C)(C)=O)n1 (stereo not drawn) [Compound 108, 5-(4-((1-(4-((5-bromo-4-((2-(dimethylphosphoryl)phenyl)amino)pyrimidin-2-yl)amino)-5-methoxy-2-(1-methyl-1H-pyrazol-4-yl)phenyl)piperidin-4-yl)methyl)piperazin-1-yl)-2-(2,6-dioxopiperidin-3-yl)isoindoline-1,3-dione]
–	–	< 200 nM	79 nM	< 100 nM	51 nM	≥ 10000 nM	< 100 nM	101000 ng·h/mL	COc1cc(N2CCN(C[C@H]3CCN(c4ccc5c(c4)C(=O)N(C4CCC(=O)NC4=O)C5=O)C3)CC2)c(-c2cnn(C)c2)cc1Nc1ncc(Br)c(Nc2ccc(-c3ccccc3F)cc2P(C)(C)=O)n1 (stereo partly drawn) [Compound 117, 5-((R)-3-((4-(4-((5-bromo-4-((3-(dimethylphosphoryl)-2′-fluoro-[1,1′-biphenyl]-4-yl)amino)pyrimidin-2-yl)amino)-5-methoxy-2-(1-methyl-1H-pyrazol-4-yl)phenyl)piperazin-1-yl)methyl)pyrrolidin-1-yl)-2-(2,6-dioxopiperidin-3-yl)isoindoline-1,3-dione]
